The record followed here is patent US20230099344A1, “COMPOUNDS AND METHODS FOR THE TARGETED DEGRADATION OF IRAK-4” (Arvinas Operations, Inc., priority 2021, published 2023).

Molecules are shown by their SMILES.

In this test the target is T1, IRAK-4 (Homo sapiens, UniProt Q9NWZ3).
T1 sequence (Q9NWZ3 1-460): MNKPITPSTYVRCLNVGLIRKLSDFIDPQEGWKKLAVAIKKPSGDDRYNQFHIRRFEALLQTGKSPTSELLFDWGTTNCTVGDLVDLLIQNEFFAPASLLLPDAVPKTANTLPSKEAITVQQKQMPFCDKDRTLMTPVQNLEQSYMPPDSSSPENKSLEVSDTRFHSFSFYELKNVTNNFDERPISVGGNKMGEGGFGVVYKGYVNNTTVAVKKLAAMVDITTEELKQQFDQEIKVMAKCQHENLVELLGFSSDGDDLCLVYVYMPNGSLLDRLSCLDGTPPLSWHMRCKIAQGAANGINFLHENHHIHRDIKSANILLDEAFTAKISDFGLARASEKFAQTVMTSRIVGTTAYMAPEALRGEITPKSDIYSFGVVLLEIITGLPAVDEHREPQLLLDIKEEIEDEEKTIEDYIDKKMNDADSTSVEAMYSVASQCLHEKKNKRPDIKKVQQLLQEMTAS
The test is described as follows: IRAK-4 ELISA, PBMC degradation. Type of test: cell-based. The conditions noted are these: treated overnight. Also noted: endogenous in cells; host or cells: PBMC. The method, boiled down:
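OCI-Ly10 cells (seeded at 1×10^6/ml) or human PBMC (seeded at 2×10^6/ml) were treated with compound on the day of seeding and incubated overnight. Lysates were then assayed for remaining IRAK-4 protein by sandwich ELISA with a matched antibody pair.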
For orientation: In an ELISA, binding on a coated surface is turned into a signal by an enzyme label.

Broadly, the DC50 is the midpoint of the concentration-degradation curve. Read a low DC50 as a more potent degrader. Usually Dmax stands for the greatest extent of degradation seen. As to `C[C@H](Oc1cc2nn(C3CCN(CC4(F)CN(c5ccc6c(c5)C(=O)N(C5CCC(=O)NC5=O)C6=O)C4)CC3)cc2cc1NC(=O)c1cnn2cccnc12)C1CC1` (stereo partly drawn) [Example 264], the DC50 is 1 to 5 nM; the Dmax fell in the range of 70 to 80%; the “PBMC DC90” value is “B (B represents a DC90 value ≥10.0 nM and <25.0 nM)”.
As for `CCN(C1CN(c2ccc3c(c2)C(=O)N(C2CCC(=O)NC2=O)C3=O)C1)[C@H]1CC[C@H](n2cc3cc(NC(=O)c4cnn5cccnc45)c(OC(C)C)cc3n2)CC1` (stereo partly drawn) [Example 319], the DC50 lay in the range of 1 to 5 nM, the greatest degradation seen (Dmax) was in the range of 80 to 90% and the “PBMC DC90” value is listed as “A (A represents a DC90 value <10.0 nM)”.
On the same counts, the results for `CN(CC1(C)CCN(c2ccc3c(c2)C(=O)N(C2CCC(=O)NC2=O)C3=O)CC1)C1CCC(n2cc3cc(NC(=O)c4cnn5cccnc45)c(OCC4CC4)cc3n2)CC1` (stereo not drawn) [Example 356] are 1 to 5 nM, no less than 90% and “A (A represents a DC90 value <10.0 nM)”.
On the same counts, the results for `O=C1CCC(N2Cc3cc(N4CC(F)(CN5CCC(n6cc7cc(NC(=O)c8cnn9cccnc89)c(OC8CCC8)cc7n6)CC5)C4)ccc3C2=O)C(=O)N1` (stereo not drawn) [Example 214] are less than 1 nM, 70 to 80% and “A (A represents a DC90 value <10.0 nM)”.
The like results for `CN(C1CN(c2ccc3c(c2)C(=O)N(C2CCC(=O)NC2=O)C3=O)C1)[C@H]1CC[C@H](n2cc3cc(NC(=O)c4cnn5cccnc45)c(C4CC4)cc3n2)CC1` (stereo partly drawn) [Example 343] were, in that order, less than 1 nM, no less than 90% and “A (A represents a DC90 value <10.0 nM)”.
`CN(CC1(F)CCN(c2ccc3c(c2)C(=O)N(C2CCC(=O)NC2=O)C3=O)CC1)[C@H]1CC[C@H](n2cc3cc(NC(=O)c4cnn5cccnc45)c(OCC4CC4)cc3n2)CC1` (stereo partly drawn) [Example 352]: the DC50 was 1 to 5 nM; the Dmax was in the range of 80 to 90%; the “PBMC DC90” value was “B (B represents a DC90 value ≥10.0 nM and <25.0 nM)”.
With `CC(C)Oc1cc2c(cc1NC(=O)c1cnn3cccnc13)CN(C[C@@H](F)C1CCN(CC3CCN(c4ccc5c(c4)CN(C4CCC(=O)NC4=O)C5=O)CC3)CC1)C2=O` (stereo partly drawn) [Example 20], the DC50 was less than 1 nM, the Dmax is no less than 90% and the “PBMC DC90” value was “A (A represents a DC90 value <10.0 nM)”.
Regarding `O=C1CCC(N2C(=O)c3ccc(N4CC(F)(CN5CCC([C@H](F)CN6Cc7cc(NC(=O)c8cnn9cccnc89)c(N8CCOCC8)cc7C6=O)CC5)C4)cc3C2=O)C(=O)N1` (stereo partly drawn) [Example 413], the DC50 is 1 to 5 nM; the maximal degradation (Dmax) lay within 80 to 90%; the “PBMC DC90” value was “B (B represents a DC90 value ≥10.0 nM and <25.0 nM)”.
Consider `COc1cc2c(cc1N1CC(F)(CN3CCC(n4cc5cc(NC(=O)c6cnn7cccnc67)c(OCC6CC6)cc5n4)CC3)C1)C(=O)N(C1CCC(=O)NC1=O)C2=O` (stereo not drawn) [Example 244], for which the DC50 lay within 1 to 5 nM; the Dmax lay in the range of 80 to 90%; the “PBMC DC90” value was “B (B represents a DC90 value ≥10.0 nM and <25.0 nM)”.
On to `CC(C)Oc1cc2c(cc1NC(=O)c1cnn3cccnc13)CN(C[C@@H](F)C1CN(CC3CCN(c4ccc5c(c4)CN(C4CCC(=O)NC4=O)C5=O)CC3)C1)C2=O` (stereo partly drawn) [Example 17], for which the DC50 was less than 1 nM, the Dmax fell in the range of 80 to 90% and the “PBMC DC90” value is on record as “A (A represents a DC90 value <10.0 nM)”.
On the same counts, the results for `O=C1CCC(N2C(=O)c3ccc(N4CCC(CN5CCC(n6cc7cc(NC(=O)c8cnn9cccnc89)c(C8CC8)cc7n6)CC5)CC4)cc3C2=O)C(=O)N1` (stereo not drawn) [Example 186] are 1 to 5 nM, no less than 90% and “A (A represents a DC90 value <10.0 nM)”.
Consider `CC(C)Oc1cc2c(cc1NC(=O)c1cnn3cccnc13)CN(C[C@@H](F)C1CCN(CC3CCN(c4ccc5c(c4)C(=O)N(C4CCC(=O)NC4=O)C5=O)CC3)CC1)C2=O` (stereo partly drawn) [Example 18], for which the DC50 is less than 1 nM, the Dmax was no less than 90% and the “PBMC DC90” value is “A (A represents a DC90 value <10.0 nM)”.
